Measurements from ChEMBL document CHEMBL6071165, “Design, synthesis and biological evaluation of plant-derived miliusol derivatives achieve TNBC profound regression in vivo” (Eur J Med Chem, 2024).
Calls of active or inactive are those of the source. The calls are words filed in the database; no cut-off is given here.

Key:
MDA-MB-231 [1] = experiment: Antiproliferative activity against human MDA-MB-231 cells xenografted in female BALB/c mouse model assessed as fold change in downregulation of MMP-2 protein level at 5 mg/kg administered subcutaneously incubated for 24 hrs by Western blot analysis (reference value: 1.00%); assay type: functional; details: route sc
MDA-MB-231 [2] = experiment: Inhibition of cell migration in human MDA-MB-231 cells assessed as decrease in MMP-2 level incubated for 24 hrs by Western blot analysis; assay type: functional, cell-based; details: dose 0.5-2 µM
[3] = Antiproliferative activity against human MCF-10A cells assessed as inhibition of cell proliferation incubated for 48 hrs by MTT assay; assay type: toxicity, cell-based
MDA-MB-231 [4] = experiment: Induction of apoptosis in human MDA-MB-231 cells assessed as late apoptotic cells at 2 uM incubated for 24 hrs by Annexin V-PI staining based flow cytometric analysis (reference value: 1.83%); assay type: functional
MDA-MB-231 [5] = experiment: Induction of apoptosis in human MDA-MB-231 cells assessed as viable cells at 0.5 uM incubated for 24 hrs by Annexin V-PI staining based flow cytometric analysis (reference value: 96.5%); assay type: functional; details: read-out: Activity
[6] = Toxicity in female BALB/c mouse xenografted with human MDA-MB-231 cells assessed as effect on pathological changes in spleen at 5 to 20 mg/kg, sc by H and E staining based analysis; assay type: organism-based; details: in vivo, dose 5-20 mg/kg
MDA-MB-231 [7] = experiment: Induction of apoptosis in human MDA-MB-231 cells assessed as early apoptotic cells at 2 uM incubated for 24 hrs by Annexin V-PI staining based flow cytometric analysis (reference value: 0.42%); assay type: functional
MDA-MB-231 [8] = experiment: Induction of apoptosis in human MDA-MB-231 cells assessed as late apoptotic cells at 1 uM incubated for 24 hrs by Annexin V-PI staining based flow cytometric analysis (reference value: 1.83%); assay type: functional
MDA-MB-231 [9] = experiment: Induction of apoptosis in human MDA-MB-231 cells assessed as early apoptotic cells at 0.5 uM incubated for 24 hrs by Annexin V-PI staining based flow cytometric analysis (reference value: 0.42%); assay type: functional
BT-549 [10] = experiment: Downregulation of c-Jun level in human BT-549 cells incubated for 24 hrs by Western blot analysis; assay type: functional, cell-based; details: dose 0.5-2 µM
MDA-MB-231 [11] = experiment: Inhibition of DNA replication in human MDA-MB-231 cells assessed as reduction in EDU fluorescence intensity by EDU staining based fluorescence microscopic analysis; assay type: functional, cell-based; details: dose 0.5-2 µM
[12] = Toxicity in female BALB/c mouse xenografted with human BT-549 cells assessed as effect on body weight at 5 to 20 mg/kg, sc and measured daily; assay type: organism-based; details: in vivo, dose 5-20 mg/kg
MDA-MB-231 [13] = experiment: Inhibition of glycolysis in human MDA-MB-231 cells assessed as decrease in LDHA protein level at 0.5 to 2 uM incubated for 24 hrs by Western blot analysis; assay type: functional, cell-based; details: dose 0.5-2 µM
BT-549 [14] = experiment: Antiproliferative activity against human BT-549 cells xenografted in female BALB/c mouse model assessed as inhibition of Ki-67 expression at 5 to 20 mg/kg administered subcutaneously by immunohistochemical staining based microscopic analysis; assay type: functional, organism-based; details: dose 5-20 mg/kg, route sc
MDA-MB-231 [15] = experiment: Inhibition of cell migration in human MDA-MB-231 cells assessed as increase in E-cadherin level incubated for 24 hrs by Western blot analysis; assay type: functional, cell-based; details: dose 0.5-2 µM
MDA-MB-231 [16] = experiment: Induction of apoptosis in human MDA-MB-231 cells assessed as upregulation of cleavage of caspase-8 expression at 0.5 to 2 uM incubated for 24 hrs by Western blot analysis; assay type: functional, cell-based; details: dose 0.5-2 µM
BT-549 [17] = experiment: Induction of apoptosis in human BT-549 cells incubated for 24 hrs by Annexin V-PI staining based flow cytometric analysis; assay type: functional, cell-based; details: dose 0.5-2 µM
MDA-MB-231 [18] = experiment: Induction of apoptosis in human MDA-MB-231 cells assessed as viable cells at 1 uM incubated for 24 hrs by Annexin V-PI staining based flow cytometric analysis (reference value: 96.5%); assay type: functional; details: read-out: Activity
MDA-MB-231 [19] = experiment: Inhibition of glycolysis in human MDA-MB-231 cells assessed as decrease in PKM2 protein level at 0.5 to 2 uM incubated for 24 hrs by Western blot analysis; assay type: functional, cell-based; details: dose 0.5-2 µM
MDA-MB-231 [20] = experiment: Antiproliferative activity against human MDA-MB-231 cells xenografted in female BALB/c mouse model assessed as fold change in inhibition of PKM2 expression at 20 mg/kg administered subcutaneously incubated for 24 hrs by Western blot analysis (reference value: 1.00%); assay type: functional; details: route sc
MDA-MB-231 [21] = experiment: Antiproliferative activity against human MDA-MB-231 cells xenografted in female BALB/c mouse model assessed as fold change in downregulation of MMP-2 protein level at 10 mg/kg administered subcutaneously incubated for 24 hrs by Western blot analysis (reference value: 1.00%); assay type: functional; details: route sc
Mitochondrial membrane [22] = experiment: Disruption of mitochondrial potential loss in human MDA-MB-231 cells assessed as increase in JC-1 monomers at 1 uM incubated for 24 hrs by JC-1 staining based flow cytometric analysis (Rvb =1.68%); assay type: cell membranes
MDA-MB-231 [23] = experiment: Antiproliferative activity against human MDA-MB-231 cells xenografted in female BALB/c mouse model assessed as fold change in cleavage of caspase-3 level at 20 mg/kg administered subcutaneously incubated for 24 hrs by Western blot analysis (reference value: 1.00%); assay type: functional; details: route sc
MDA-MB-231 [24] = experiment: Induction of apoptosis in human MDA-MB-231 cells assessed as necrotic cells at 1 uM incubated for 24 hrs by Annexin V-PI staining based flow cytometric analysis (reference value: 1.29%); assay type: functional
MDA-MB-231 [25] = experiment: Induction of ER stress in human MDA-MB-231 cells assessed as activation of BIP protein level incubated for 24 hrs by Western blot analysis; assay type: functional, cell-based; details: dose 0.5-2 µM
BT-549 [26] = experiment: Antiproliferative activity against human BT-549 cells xenografted in female BALB/c mouse model assessed as fold change in downregulation of MMP-2 protein level at 20 mg/kg administered subcutaneously incubated for 24 hrs by Western blot analysis (reference value: 1.00%); assay type: functional; details: route sc
BT-549 [27] = experiment: Inhibition of glycolysis in human BT-549 cells assessed as reduction in glucose uptake at 0.5 to 2 uM incubated for 24 hrs followed by 2-NBDG staining based flow cytometric analysis; assay type: functional, cell-based; details: dose 0.5-2 µM
[28] = Toxicity in female BALB/c mouse xenografted with human BT-549 cells assessed as effect on pathological changes in lung at 5 to 20 mg/kg, sc by H and E staining based analysis; assay type: organism-based; details: in vivo, dose 5-20 mg/kg
BT-549 [29] = experiment: Induction of apoptosis in human BT-549 cells assessed as late apoptotic cells at 1 uM incubated for 24 hrs by Annexin V-PI staining based flow cytometric analysis (reference value: 2.95%); assay type: functional
Mitochondrial membrane [30] = experiment: Disruption of mitochondrial potential loss in human BT-549 cells assessed as decrease in JC-1 aggregates at 1 uM incubated for 24 hrs by JC-1 staining based flow cytometric analysis (Rvb =98.7%); assay type: cell membranes; set-up: scale not given: the % may be the effect or the level left
BT-549 [31] = experiment: Antiproliferative activity against human BT-549 cells xenografted in female BALB/c mouse model assessed as fold change in inhibition of PKM2 expression at 20 mg/kg administered subcutaneously incubated for 24 hrs by Western blot analysis (reference value: 1.05%); assay type: functional; details: route sc
MDA-MB-231 [32] = experiment: Antiproliferative activity against human MDA-MB-231 cells xenografted in female BALB/c mouse model assessed as fold change in upregulation of BIP protein level at 10 mg/kg administered subcutaneously incubated for 24 hrs by Western blot analysis (reference value: 1.00%); assay type: functional; details: route sc

With `CC(C)=CCC/C(C)=C/[C@H]1OC(=O)CC12C[C@H](OC(=O)Cc1ccc(NC(=O)/C=C/c3ccccc3)cc1)C=CC2=O` (some centres not stated) the “fold change (FC)” value (MDA-MB-231 [1]) was 0.44, the inhibition (MDA-MB-231 [2]) was “Dose-Dependent Effect” and the IC50 at 48 h [3] was 16 µM. For the same compound, the Activity (MDA-MB-231 [4]) was 42.4%, the viability at 0.5 µM (MDA-MB-231 [5]) was 70.1% and the Activity [6] was “Non-Toxic”. For the same compound, the Activity (MDA-MB-231 [7]) was 2.23%, the Activity (MDA-MB-231 [8]) was 41.2% and the Activity (MDA-MB-231 [9]) was 0.83%. The Activity (BT-549 [10]) was “Dose-Dependent Effect”, the inhibition (MDA-MB-231 [11]) was “Dose-Dependent Effect” and the Activity [12] was “Non-Toxic”. The inhibition (MDA-MB-231 [13]) was “Active”, the Activity (BT-549 [14]) was “Active” and the inhibition (MDA-MB-231 [15]) was “Dose-Dependent Effect”. For the same compound, the Activity (MDA-MB-231 [16]) was “Active”, the Activity (BT-549 [17]) was “Dose-Dependent Effect” and the viability at 1 µM (MDA-MB-231 [18]) was 42%. For the same compound, the inhibition (MDA-MB-231 [19]) was “Active”, the “fold change (FC)” value (MDA-MB-231 [20]) was 0.31 and the “fold change (FC)” value (MDA-MB-231 [21]) was 0.26. The Activity (Mitochondrial membrane [22]) was 42.6%, the “fold change (FC)” value (MDA-MB-231 [23]) was 2.09 and the Activity (MDA-MB-231 [24]) was 15.9%. For the same compound, the Activity (MDA-MB-231 [25]) was “Dose-Dependent Effect”, the “fold change (FC)” value (BT-549 [26]) was 0.17 and the inhibition (BT-549 [27]) was “Active”. For the same compound, the Activity [28] was “Non-Toxic”, the Activity (BT-549 [29]) was 24.9% and the Activity (Mitochondrial membrane [30]) was 43.2%. The “fold change (FC)” value (BT-549 [31]) was 0.16 and the “fold change (FC)” value (MDA-MB-231 [32]) was 2.1.
